Literature values as cited in article PMC10687119, “Quaternary Ammonium Salts of Cationic Lipopeptides with Lysine Residues — Synthesis, Antimicrobial, Hemolytic and Cytotoxic Activities” (Probiotics and Antimicrobial Proteins, 2023).

Legend:
[1] = cited from earlier work
S. aureus = system: S. aureus; design: method as in PMID 20374251; details: against S. aureus ref 5; cited from earlier work
human keratinocytes = system: human keratinocytes; design: method as in PMID 33003569; details: toxicity towards human keratinocytes ref 3; in µg/mL; cited from earlier work

Row | Molecule | IC50 (human keratinocytes) | other results
1 | C[N+](C)(C)CC(=O)O [betaine, N,N,N-trimethylglycine] | – | solubility in water [1]: 611 mg/mL
2 | C12-Orn-Orn-Trp-Trp-NH2 | – | MIC (S. aureus): 0.95 to 1.95 µg/mL
3 | C16-CRRKKC-NH2 | 21.3 ± 8.2 | –
4 | C16-RRKK-NH2 [Peptide C16-RRKK-NH2] | 8.1 ± 1.1 | –
